From ChEMBL document CHEMBL5360625, “Design, Synthesis, and Antitumor Activity Evaluation of 2-Arylmethoxy-4-(2,2'-dihalogen-substituted biphenyl-3-ylmethoxy) Benzylamine Derivatives as Potent PD-1/PD-L1 Inhibitors” (J Med Chem, 2023)
One block for each compound: values may come before it.

Columns and labels:
[1] = molecular target: Programmed cell death protein 1/Programmed cell death 1 ligand 1 (Homo sapiens, UniProt Q9NZQ7); experiment: Inhibition of PD-1/PD-L1 interaction (unknown origin) incubated for 1 hr by HTRF assay; assay type: protein-complex assay
PBMC = experiment: Cytotoxicity against human PBMC cells assessed as reduction in cell viability at 1 to 4 uM measured after 48 hrs by CCK-8 assay; assay type: toxicity, cell-based; details: dose 1-4 µM
MC-38 = experiment: Antitumor activity against mouse MC38 cells expressing human PD-L1 protein assessed as reduction in cell viability measured after 48 hrs by CCK-8 assay; assay type: functional, cell-based; details: MC-38, 48 h
[2] = AUC (0 to t) in Sprague-Dawley rat at 8 mg/kg, iv measured upto 48 hrs by LC-MS/MS analysis; assay type: ADME, organism-based; set-up: dose 8 mg/kg, time < 48 hrs, route iv; details: in vivo
[3] = AUC (0 to t) in Sprague-Dawley rat at 40 mg/kg, IG measured upto 48 hrs by LC-MS/MS analysis; assay type: ADME, organism-based; set-up: dose 40 mg/kg, time < 48 hrs, route ig; details: in vivo, po
[4] = AUC (0 to t) in Sprague-Dawley rat at 10 mg/kg, ip measured upto 48 hrs by LC-MS/MS analysis; assay type: ADME, organism-based; set-up: time < 48 hrs, dose 10 mg/kg, route ip; details: in vivo
[5] = AUC (0 to infinity) in Sprague-Dawley rat at 8 mg/kg, iv measured upto 48 hrs by LC-MS/MS analysis; assay type: ADME, organism-based; set-up: time < 48 hrs, dose 8 mg/kg, route iv; details: in vivo
[6] = AUC (0 to infinity) in Sprague-Dawley rat at 40 mg/kg, IG measured upto 48 hrs by LC-MS/MS analysis; assay type: ADME, organism-based; set-up: time < 48 hrs, dose 40 mg/kg, route ig; details: in vivo, po, 48 h
[7] = AUC (0 to infinity) in Sprague-Dawley rat at 10 mg/kg, ip measured upto 48 hrs by LC-MS/MS analysis; assay type: ADME, organism-based; set-up: time < 48 hrs, dose 10 mg/kg, route ip; details: in vivo
[8] = Cmax in Sprague-Dawley rat at 8 mg/kg, iv measured upto 48 hrs by LC-MS/MS analysis; assay type: ADME, organism-based; set-up: time < 48 hrs, dose 8 mg/kg, route iv; details: in vivo
[9] = Cmax in Sprague-Dawley rat at 40 mg/kg, IG measured upto 48 hrs by LC-MS/MS analysis; assay type: ADME, organism-based; set-up: dose 40 mg/kg, time < 48 hrs, route ig; details: in vivo, po
[10] = Cmax in Sprague-Dawley rat at 10 mg/kg, ip measured upto 48 hrs by LC-MS/MS analysis; assay type: ADME, organism-based; set-up: time < 48 hrs, dose 10 mg/kg, route ip; details: in vivo
[11] = Tmax in Sprague-Dawley rat at 8 mg/kg, iv measured upto 48 hrs by LC-MS/MS analysis; assay type: ADME, organism-based; details: in vivo
[12] = Tmax in Sprague-Dawley rat at 10 mg/kg, ip measured upto 48 hrs by LC-MS/MS analysis; assay type: ADME, organism-based; details: in vivo
[13] = Half life in Sprague-Dawley rat at 8 mg/kg, iv measured upto 48 hrs by LC-MS/MS analysis; assay type: ADME, organism-based; details: in vivo, iv, 8 mg/kg, 48 h
[14] = Half life in Sprague-Dawley rat at 40 mg/kg, IG measured upto 48 hrs by LC-MS/MS analysis; assay type: ADME, organism-based; details: in vivo, po, 40 mg/kg, 48 h
[15] = Half life in Sprague-Dawley rat at 10 mg/kg, ip measured upto 48 hrs by LC-MS/MS analysis; assay type: ADME, organism-based; details: in vivo
[16] = Apparent volume of distribution in Sprague-Dawley rat at 8 mg/kg, iv measured upto 48 hrs by LC-MS/MS analysis; assay type: ADME, organism-based; details: in vivo, iv, 8 mg/kg, 48 h
[17] = Apparent volume of distribution in Sprague-Dawley rat at 40 mg/kg, IG measured upto 48 hrs by LC-MS/MS analysis; assay type: ADME, organism-based; details: in vivo, po
[18] = Apparent volume of distribution in Sprague-Dawley rat at 10 mg/kg, ip measured upto 48 hrs by LC-MS/MS analysis; assay type: ADME, organism-based; details: in vivo
[19] = Clearance in Sprague-Dawley rat at 8 mg/kg, iv measured upto 48 hrs by LC-MS/MS analysis; assay type: ADME, organism-based; details: in vivo, iv, 8 mg/kg, 48 h
[20] = Clearance in Sprague-Dawley rat at 40 mg/kg, IG measured upto 48 hrs by LC-MS/MS analysis; assay type: ADME, organism-based; details: in vivo, po, 40 mg/kg, 48 h
[21] = Clearance in Sprague-Dawley rat at 10 mg/kg, ip measured upto 48 hrs by LC-MS/MS analysis; assay type: ADME, organism-based; details: in vivo
[22] = Bioavailability in Sprague-Dawley rat at 40 mg/kg, IG measured upto 48 hrs by LC-MS/MS analysis; assay type: ADME, organism-based; details: in vivo, po

Programmed cell death protein 1/Programmed cell death 1 ligand 1, sequence (Q15116 whole entry): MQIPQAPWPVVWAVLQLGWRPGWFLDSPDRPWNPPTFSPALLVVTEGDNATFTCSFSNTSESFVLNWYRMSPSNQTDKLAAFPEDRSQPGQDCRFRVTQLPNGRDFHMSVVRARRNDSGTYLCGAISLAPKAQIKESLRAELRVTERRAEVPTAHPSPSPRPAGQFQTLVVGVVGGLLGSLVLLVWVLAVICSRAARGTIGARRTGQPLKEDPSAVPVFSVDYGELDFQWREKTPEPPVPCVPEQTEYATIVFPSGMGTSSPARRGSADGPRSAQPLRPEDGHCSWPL
Programmed cell death protein 1/Programmed cell death 1 ligand 1, sequence (Q9NZQ7 whole entry): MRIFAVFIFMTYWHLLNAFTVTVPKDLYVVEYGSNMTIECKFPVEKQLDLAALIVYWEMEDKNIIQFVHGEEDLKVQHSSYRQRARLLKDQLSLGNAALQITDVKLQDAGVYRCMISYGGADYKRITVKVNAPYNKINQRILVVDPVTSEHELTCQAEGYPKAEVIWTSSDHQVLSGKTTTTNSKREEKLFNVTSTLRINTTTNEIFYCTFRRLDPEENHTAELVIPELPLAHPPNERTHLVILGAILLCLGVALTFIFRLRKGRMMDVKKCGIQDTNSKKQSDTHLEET

Compound: COc1c(COc2ccc(CN[C@@H](CO)C(=O)O)c(OCc3cccc(C#N)c3)c2)cccc1-c1ccccc1F
IC50 [1]: 2130 µM

Compound: COc1c(COc2ccc(CNCCNC(C)=O)c(OCc3cccc(C#N)c3)c2)cccc1-c1ccccc1Cl
IC50 [1]: 3.6 µM

Compound: COc1c(COc2ccc(CNCCNC(C)=O)c(OCc3cccc(C#N)c3)c2)cccc1-c1ccccc1F
IC50 [1]: 2.4 µM

Compound: COc1c(COc2ccc(CN3C[C@@H](O)C[C@@H]3C(=O)O)c(OCc3cccc(C#N)c3)c2)cccc1-c1ccccc1
IC50 [1]: 21.8 µM

Compound: COc1c(COc2ccc(CNCCNC(C)=O)c(OCc3ccc(F)cc3)c2)cccc1-c1ccccc1
IC50 [1]: > 32 µM

Compound: COc1c(COc2ccc(CNCCO)c(OCc3cncc(C#N)c3)c2)cccc1-c1ccccc1F
IC50 [1]: 417 µM

Compound: COc1c(NCc2ccc(OCc3ccc(F)cc3)c(CNCCO)c2)cccc1-c1ccc2ccccc2c1
IC50 [1]: > 32 µM

Compound: COc1c(COc2ccc(CN3CC(C(=O)O)C3)c(OCc3cncc(C#N)c3)c2)cccc1-c1ccccc1
IC50 [1]: 4.7 µM

Compound: COc1c(COc2ccc(CNCCO)c(OCc3cccc(C#N)c3)c2)cccc1-c1ccccc1F
IC50 [1]: 1660 µM

Compound: COc1c(COc2ccc(CN3CCC[C@H]3C(=O)O)c(OCc3cccc(C#N)c3)c2)cccc1-c1ccccc1
IC50 [1]: 18.9 µM

Compound: COc1c(COc2ccc(CN[C@@H](CO)C(=O)O)c(OCc3cncc(C#N)c3)c2)cccc1-c1ccccc1F
IC50 [1]: 616 µM

Compound: COc1cc(COc2cc(OCc3cccc(-c4ccccc4)c3OC)ccc2CNCCNC(C)=O)ccn1
IC50 [1]: 13.7 µM

Compound: COc1c(COc2ccc(CNCCO)c(OCc3cncc(C#N)c3)c2)cccc1-c1ccccc1
IC50 [1]: 0.8 µM

Compound: COc1nc(OCc2cccc(-c3ccccc3)c2C)ccc1CNCCNC(C)=O
Activity (PBMC): Non-Toxic

Compound: COc1c(COc2cc(OCc3cncc(C#N)c3)c(CNCCNC(C)=O)cc2Cl)cccc1-c1ccccc1F
IC50 [1]: 468 µM

Compound: N#Cc1cccc(COc2cc(OCc3cccc(-c4ccccc4F)c3Cl)ccc2CN2CC(C(=O)O)C2)c1
IC50 [1]: 33.6 µM

Compound: N#Cc1cccc(COc2cc(OCc3cccc(-c4ccccc4F)c3)ccc2CNCCO)c1
IC50 [1]: > 500 µM

Compound: COc1c(COc2ccc(CN3CCC[C@@H]3C(=O)O)c(OCc3cccc(C#N)c3)c2)cccc1-c1ccccc1
IC50 [1]: 19.4 µM

Compound: COc1c(NCc2ccc(OCc3cccc(C#N)c3)c(CNCCO)c2)cccc1-c1ccc2cc[nH]c2c1
IC50 [1]: > 32 µM

Compound: COc1c(NCc2ccc(OCc3ccc(C(=O)O)cc3)c(CNCCO)c2)cccc1-c1ccccc1
IC50 [1]: > 32 µM

Compound: COc1c(NCc2ccc(OCc3cccc(C#N)c3)c(CNCCO)c2)cccc1-c1ccccc1
IC50 [1]: 32 µM

Compound: COc1c(COc2ccc(OCc3cccc(C#N)c3)c(CNCCNC(C)=O)c2)cccc1-c1ccccc1
IC50 [1]: > 32 µM

AUC(0-t) at 48 h [2]: 1370 ng·h/mL | AUC(0-t) at 48 h [3]: 2660 ng·h/mL | AUC(0-t) at 48 h [4]: 1970 ng·h/mL | AUC(0-inf) [5]: 1840 ng·h/mL | AUC [6]: 2869.12 ng·h/mL | AUC(0-inf) [7]: 2160 ng·h/mL | Cmax [8]: 2530 ng/mL | Cmax [9]: 1290 ng/mL | Cmax [10]: 786 ng/mL | Tmax [11]: 4.8 min | Tmax [12]: 49.8 min | t1/2 [13]: 6.6 min | t1/2 [14]: 188 min | half-life [15]: 97.8 min | Vz [16]: 2.04 L/kg | Vz [17]: 65.83 L/kg | Vz [18]: 8.28 L/kg | CL [19]: 75.3 mL/min/kg | CL [20]: 572.5 mL/min/kg | CL/F [21]: 78 mL/min/kg | bioavailability [22]: 42%
Compound: N#Cc1cccc(COc2cc(OCc3cccc(-c4ccccc4F)c3Cl)ccc2CNCC(=O)O)c1
IC50 [1]: 6 µM | Activity (PBMC): Non-Toxic | IC50 (MC-38): > 8 µM

Compound: COc1c(COc2ccc(CNCCNC(C)=O)c(OCc3cccc(F)c3)c2)cccc1-c1ccccc1
IC50 [1]: 11.3 µM

Compound: COc1c(NCc2ccc(OCc3ccc(F)cc3)c(CNCCO)c2)cccc1-c1ccccc1
IC50 [1]: > 32 µM

Compound: COc1c(COc2ccc(CN[C@H](C(=O)O)C(C)O)c(OCc3cccc(C#N)c3)c2)cccc1-c1ccccc1 (single isomer, unassigned)
IC50 [1]: 17.3 µM

Compound: COc1c(COc2ccc(CN[C@H](CO)C(=O)O)c(OCc3cccc(C#N)c3)c2)cccc1-c1ccccc1
IC50 [1]: 3.2 µM

Compound: COc1c(NCc2ccc(OCc3cccc(C#N)c3)c(CNCCNC(C)=O)c2)cccc1-c1ccc2ccccc2c1
IC50 [1]: > 32 µM

Compound: COc1c(COc2ccc(CN3CCC(O)C3)c(OCc3cncc(C#N)c3)c2)cccc1-c1ccccc1 (stereo not drawn)
IC50 [1]: 6.2 µM

Compound: COc1c(COc2ccc(CNCCNC(C)=O)c(OCc3cccnc3)c2)cccc1-c1ccccc1
IC50 [1]: 9.4 µM
